Reference: the supplement of paper PMC10883282
± gives the standard deviation of the averaged measurements.

Tested on: KHOS-240S
Experiment: relative viability vs DMSO control (72 h) (fraction); higher = more viable cells
Summary of the method: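 Sarcoma cell lines were seeded in 384-well plates at densities set to reach 80–90% confluence. After 24 h, 2.5 µl of serially diluted compound was added (source plates 10 mM to 0.0002 mM), and plates were held 72 h at 37 °C, 5% CO2, with 0.1% DMSO vehicle and a 5 µM positive control. Relative viability came from ATPLite readings as percent growth, averaged over up to triplicate wells. Data were rescaled so full viability equals 1 and none equals 0.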

| Structure (SMILES) | relative viability (0.00017 µM) | relative viability (0.00051 µM) | relative viability (0.00152 µM) | relative viability (0.00457 µM) | relative viability (0.01372 µM) | relative viability (0.04115 µM) | relative viability (0.1235 µM) | relative viability (0.3704 µM) | relative viability (1.111 µM) | relative viability (3.333 µM) | relative viability (10 µM) |
| --- | --- | --- | --- | --- | --- | --- | --- | --- | --- | --- | --- |
| Cc1nc(-c2cn3c(n2)-c2ccc(-c4cnn(C(C)(C)C(N)=O)c4)cc2OCC3)n(C(C)C)n1 [Taselisib] | 1.03 ± 0.013 | 1.03 ± 0.024 | 1.01 ± 0.031 | 1.02 ± 0.049 | 0.952 ± 0.029 | 0.911 ± 0.012 | 0.856 ± 0.018 | 0.793 ± 0.041 | 0.725 ± 0.037 | 0.684 ± 0.049 | 0.566 ± 0.017 |
| Cc1nc(NC(=O)N2CCC[C@H]2C(N)=O)sc1-c1ccnc(C(C)(C)C(F)(F)F)c1 [Alpelisib] | 1.05 ± 0.071 | 1.07 ± 0.02 | 1.03 ± 0.054 | 1.05 ± 0.054 | 1.02 ± 0.061 | 1.01 ± 0.048 | 0.914 ± 0.055 | 0.907 ± 0.039 | 0.825 ± 0.065 | 0.791 ± 0.04 | 0.697 ± 0.054 |
| Cn1cnc2c(F)c(Nc3ccc(Br)cc3F)c(C(=O)NOCCO)cc21 [Binimetinib] | 1.03 ± 0.053 | 1.06 ± 0.054 | 1.07 ± 0.067 | 1.06 ± 0.052 | 0.998 ± 0.02 | 0.975 ± 0.027 | 0.922 ± 0.04 | 0.895 ± 0.069 | 0.855 ± 0.0094 | 0.737 ± 0.027 | 0.637 ± 0.045 |
| CCc1cc2c(cc1N1CCC(N3CCOCC3)CC1)C(C)(C)c1[nH]c3cc(C#N)ccc3c1C2=O [Alectinib] | 1.06 ± 0.048 | 1.09 ± 0.075 | 1.09 ± 0.064 | 1.08 ± 0.066 | 1.06 ± 0.072 | 1.07 ± 0.069 | 1.05 ± 0.074 | 0.998 ± 0.079 | 0.996 ± 0.063 | 0.984 ± 0.054 | 0.971 ± 0.073 |
| Cc1cc(C)c(/C=C2\C(=O)Nc3ccccc32)[nH]1 [Semaxanib] | 1.01 ± 0.02 | 1.01 ± 0.032 | 1.01 ± 0.025 | 1.02 ± 0.034 | 0.99 ± 0.01 | 0.966 ± 0.013 | 0.951 ± 0.022 | 0.959 ± 0.024 | 0.844 ± 0.025 | 0.812 ± 0.023 | 0.803 ± 0.024 |
| CC1(C)CNc2cc(NC(=O)c3cccnc3NCc3ccncc3)ccc21 [Motesanib] | 0.972 ± 0.026 | 0.982 ± 0.027 | 0.973 ± 0.03 | 0.992 ± 0.025 | 0.983 ± 0.018 | 0.96 ± 0.023 | 0.97 ± 0.013 | 0.931 ± 0.042 | 0.922 ± 0.075 | 0.874 ± 0.066 | 0.803 ± 0.03 |
| CNC(=O)c1ccc(-c2cnc3ncc(Cc4ccc5ncccc5c4)n3n2)cc1F [Capmatinib] | 1.07 ± 0.048 | 1.05 ± 0.02 | 1.046 ± 0.0098 | 1.07 ± 0.033 | 1.07 ± 0.018 | 1.06 ± 0.018 | 1.06 ± 0.027 | 1.04 ± 0.018 | 1.03 ± 0.018 | 1.03 ± 0.012 | 0.986 ± 0.03 |
| CC(C)N1CCN(Cc2cnc(-c3cc(-c4cccc5[nH]ccc45)cc4[nH]ncc34)o2)CC1 [Nemiralisib] | 0.971 ± 0.016 | 0.972 ± 0.027 | 0.98 ± 0.026 | 0.971 ± 0.024 | 0.966 ± 0.017 | 0.939 ± 0.018 | 0.956 ± 0.027 | 0.927 ± 0.035 | 0.93 ± 0.041 | 0.759 ± 0.018 | 0.455 ± 0.026 |
| CO[C@H]1C[C@@H]2CC[C@@H](C)[C@@](O)(O2)C(=O)C(=O)N2CCCC[C@H]2C(=O)O[C@H]([C@H](C)C[C@@H]2CC[C@@H](OP(C)(C)=O)[C@H](OC)C2)CC(=O)[C@H](C)/C=C(\C)[C@@H](O)[C@@H](OC)C(=O)[C@H](C)C[C@H](C)/C=C/C=C/C=C/1C [Ridaforolimus] | 1.03 ± 0.012 | 1.03 ± 0.027 | 0.987 ± 0.027 | 0.932 ± 0.015 | 0.919 ± 0.026 | 0.898 ± 0.022 | 0.878 ± 0.014 | 0.851 ± 0.016 | 0.826 ± 0.032 | 0.777 ± 0.018 | 0.741 ± 0.017 |
| Nc1cc(C(F)(F)F)c(-c2cc(N3CCOCC3)nc(N3CCOCC3)n2)cn1 [Buparlisib] | 1.039 ± 0.01 | 1.02 ± 0.024 | 1.04 ± 0.012 | 1.02 ± 0.033 | 1.03 ± 0.032 | 1.03 ± 0.083 | 0.989 ± 0.023 | 0.9151 ± 0.008 | 0.708 ± 0.024 | 0.114 ± 0.0036 | 0.0584 ± 0.0016 |
| Cc1ccc(F)c(NC(=O)Nc2ccc(-c3cccc4[nH]nc(N)c34)cc2)c1 [Linifanib] | 1.06 ± 0.02 | 1.08 ± 0.08 | 1.059 ± 0.0094 | 1.07 ± 0.031 | 1.05 ± 0.029 | 1.08 ± 0.041 | 1.03 ± 0.049 | 1.04 ± 0.054 | 1.06 ± 0.043 | 1.04 ± 0.011 | 0.999 ± 0.054 |
| N#CC[C@H](C1CCCC1)n1cc(-c2ncnc3[nH]ccc23)cn1 [Ruxolitinib] | 0.984 ± 0.0066 | 0.984 ± 0.012 | 0.97 ± 0.043 | 0.975 ± 0.025 | 0.95 ± 0.035 | 0.966 ± 0.028 | 0.943 ± 0.037 | 0.912 ± 0.037 | 0.88 ± 0.024 | 0.773 ± 0.037 | 0.583 ± 0.015 |
| C=CC(=O)Nc1cccc(Oc2nc(Nc3ccc(N4CCN(C)CC4)cc3)nc3ccsc23)c1 [Olmutinib] | 1.01 ± 0.015 | 1.03 ± 0.014 | 1.04 ± 0.018 | 1.02 ± 0.025 | 1.01 ± 0.024 | 1.04 ± 0.011 | 1.03 ± 0.032 | 0.997 ± 0.04 | 0.998 ± 0.035 | 0.865 ± 0.036 | 0.39 ± 0.017 |
| CCCS(=O)(=O)Nc1ccc(F)c(C(=O)c2c[nH]c3ncc(-c4ccc(Cl)cc4)cc23)c1F [Vemurafenib] | 1.09 ± 0.063 | 1.07 ± 0.032 | 1.09 ± 0.049 | 1.08 ± 0.024 | 1.08 ± 0.026 | 1.07 ± 0.034 | 1.07 ± 0.033 | 1.07 ± 0.02 | 1.075 ± 0.0032 | 1.01 ± 0.02 | 0.708 ± 0.046 |
